These results are taken from patent US20240262801A1, “COMPOUNDS HAVING 5-(2-FLUORO-6-HYDROXYPHENYL)-1,2,5-THIADIAZOLIDIN-3-ONE 1,1-DIOXIDE AS INHIBITORS OF PROTEIN KINASE PHOSPHATASE ENZYMES” (Ness Therapeutics, Inc., priority 2021, published 2024).

As usually defined, the IC50 is the midpoint of a concentration-inhibition curve. Usually inhibition stands for the change of the read-out against control, counted positive when it falls.

Read-outs that look alike come from different tables or passages of the source.

One assay concerns the target T1, GST-tagged PTPN2 protein (Homo sapiens, UniProt P17706).
T1 construct: purchased ActiveMotif 31592
Nature of the assay: Primary assay of PTPN2 enzymatic activity inhibition (DiFMUP fluorescence). Particulars: DiFMUP substrate 2 μM, 60 min at RT. Type of assay: biochemical. The method, then:
Compound activity was determined using GST-tagged PTPN2 protein (Cat #31592, ActiveMotif) (SEQ ID NO: 1) in an in vitro enzymatic reaction. The enzymatic reaction was carried out in assay buffer (50 mM HEPES Na salt pH 7.2-7.4, 2 mM EDTA, 100 mM NaCl, 52 ng/μL BSA, and 6 mM DTT). The compounds were dispensed on a 384 well Diamond Well Plate (Axigen, Cat #P-384-120SQ-C-S) using the Biomek FX liquid handling system at 100× solutions of compounds in DMSO. 2× PTPN2 (final concentration 0.004 ng/μL) was prepared in 1× Assay buffer and 25 μL of mixture per well was added into Reaction plate (Optiplate, black, Perkin Elmer, Cat #6007270). Add 25 μL of 1× buffer to Ctrl- (Substrate w/o PTPN2) wells followed by centrifugation at 100 g for 1 min. Next step the Compounds were added to Reaction plate using Biomek station via following steps: 3 ul of 100× compounds (in DMSO) were mixed with 27 μL of Assay Buffer, then 5 μL of this mixture was added to Reaction plate with 25 μL of PTPN2 Mix. Plates were centrifuged for 1 min at 100 g and incubated for another 10 minutes at room temperature. Finally, 20 μL of 2.5× Substrate (DiFUMP, Invitrogen™ Cat #D6567) mix was added into appropriate wells of Reaction plate to the final concentration of 2 μM, plate was centrifuged at 100 g for 1 min followed by incubation at RT for 60 min, and the Fluorescence Intensity was measured using a Microplate Reader (ClarioStar Plus, excitation 360 nm, emission 450 nm). The % inhibition was then used to calculate the IC50 values. The IC50 values are shown in Table A1, wherein “A” corresponds to IC50<5.0 nm, “B” corresponds to 5.0 nm≤IC50<10.0 nm, “C” corresponds to 10.0 nm≤IC50<50.0 nm, “D” corresponds to 50.0 nm≤IC50<100.0 nm, and “E” corresponds to 100.0 nm≤IC50<500.0 nm, and “F” corresponds to 500.0 nm≤IC50.

Assay [1] deals with B16F10 mouse melanoma cells. Nature of the assay: Tumor cells B16F10 cellular growth IFNγ-induced inhibition assay (CellTiter-Glo). The following applies: for IC50: B16-F10, 72 h, 3 days incubation; for inhibition at 100 µM: B16-F10, B16F10, 100 μM compound. Type of assay: cell-based. The method, then:
B16F10 mouse melanoma cells (ATCC Cat #CRL-6475) were seeded at a density of 500 cells per well in a 384-well clear bottom plate (Corning Cat #3712, Corning, N.Y.) in 40 μL total volume of DMEM+10% FBS (PanEco Cat #C420, Russia and Sigma Cat #F4135, St. Louis, Mo.). Cells were allowed to adhere overnight at 37° C., 5% CO2. On the following day, 250× solutions of compounds in DMSO (Sigma Cat #D2650) were prepared into […] plate (Diamond Well Plate, Axigen, Cat #P-384-120SQ-C-S) (final concentration of 1×) and DMSO only controls were included. Dilution Plate (Diamond Well Plate (Axigen, Cat #P-384-120SQ-C-S) was prepared by adding 49 μL of culture medium per well: half of the plate with culture medium only, half with culture medium+IFNγ (5 ng/ml). A 1 μL aliquot of 250× compounds ([…] plate) was added to 49 μL of culture medium (Dilution plate), then a 10 μL aliqut of the mixture was transferred to Reaction plate with 40 μL of cells followed by centrifugation at 240 g for 1 min. After 3 days of incubation, 10 μL of CellTiter-Glo (Promega) was added to the cells, plates were centrifuged at 240 g for 1 min, and luminescence signal was measured. For each compound, the percent growth inhibition at every compound dose level was calculated relative to the “DMSO/with IFNγ” control and used to determine the IC50.
For orientation: ATP-based viability assays read luminescence as a measure of living cells.

Where [2] appears, read: B16F10, + IFNγ, read-out: IC50 + IFNγ.
Where [3] appears, read: B16F10, no IFNγ, read-out: IC50 no IFNγ.
Where [4] appears, read: + IFNγ, read-out: % Growth Inhibition at 100 μM + IFNγ.
Where [5] appears, read: no IFNγ, read-out: % Growth Inhibition at 100 μM no IFNγ.

T1 sequence (P17706 with tags, fused parts or gaps): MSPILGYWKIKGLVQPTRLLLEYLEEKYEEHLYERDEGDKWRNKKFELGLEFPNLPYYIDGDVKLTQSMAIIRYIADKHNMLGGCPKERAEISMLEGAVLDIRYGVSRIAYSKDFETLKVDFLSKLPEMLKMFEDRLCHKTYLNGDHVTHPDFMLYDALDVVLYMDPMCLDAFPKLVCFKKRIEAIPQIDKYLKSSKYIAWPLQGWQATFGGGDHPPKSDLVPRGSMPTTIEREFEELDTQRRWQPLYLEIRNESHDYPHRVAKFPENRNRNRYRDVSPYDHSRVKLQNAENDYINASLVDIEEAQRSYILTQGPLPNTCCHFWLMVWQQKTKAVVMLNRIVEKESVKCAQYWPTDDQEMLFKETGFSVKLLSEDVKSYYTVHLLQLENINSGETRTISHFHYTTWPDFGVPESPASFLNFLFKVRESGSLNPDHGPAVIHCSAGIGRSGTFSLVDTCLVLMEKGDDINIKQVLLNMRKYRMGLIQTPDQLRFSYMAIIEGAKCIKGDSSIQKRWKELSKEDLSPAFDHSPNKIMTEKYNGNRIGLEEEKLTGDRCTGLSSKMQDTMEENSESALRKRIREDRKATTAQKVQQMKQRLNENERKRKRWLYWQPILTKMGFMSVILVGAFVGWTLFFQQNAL

As for `COc1ccc(CNC(=O)Nc2cc(O)c(N3CC(=O)NS3(=O)=O)c(F)c2)cc1` [Example 63, 1-[4-(1,1-dioxido-4-oxo-1,2,5-thiadiazolidin-2-yl)-3-fluoro-5-hydroxyphenyl]-3-(4-methoxybenzyl)urea], the IC50 is 0.01 to 0.05 µM against GST-tagged PTPN2 protein, 10 to 50 µM in assay [1] (setting [2]) and not below 100 µM in assay [1] (setting [3]). Further, the inhibition at 100 µM in assay [1] (setting [4]) was 75 to 100%; in assay [1] (setting [5]), 10 to 50%.

As to `CC(C)(C)OC(=O)N1CC(CNC(=O)Nc2cc(O)c(N3CC(=O)NS3(=O)=O)c(F)c2)C2(CCCCC2)C1` (centres unmarked) [Example 101, tert-butyl 4-[[[3-fluoro-5-hydroxy-4-(1,1,4-trioxo-1,2,5-thiadiazolidin-2-yl)phenyl]carbamoyl-amino]methyl]-2-azaspiro[4.5]decane-2-carboxylate], the results for the IC50 (against GST-tagged PTPN2 protein; in assay [1] (setting [2]); in assay [1] (setting [3])) were 0.01 to 0.05 µM, 50 to 100 µM and not below 100 µM, respectively. Moreover, the inhibition at 100 µM in assay [1] (setting [4]) was in the range of 50 to 75%; in assay [1] (setting [5]), 10 to 50%.

For `Cc1c(S(=O)(=O)Nc2cc(O)c(N3CC(=O)NS3(=O)=O)c(F)c2)cnn1C(F)F` [Example 27, 1-(difluoromethyl)-N-[4-(1,1-dioxido-4-oxo-1,2,5-thiadiazolidin-2-yl)-3-fluoro-5-hydroxyphenyl]-5-methyl-1H-pyrazole-4-sulfonamide], the 50% inhibitory concentration (IC50) at GST-tagged PTPN2 protein was 0.05 to 0.1 µM; in assay [1] (setting [2]), not below 100 µM; in assay [1] (setting [3]), not below 100 µM. For the same compound, the inhibition at 100 µM in assay [1] (setting [4]) and in assay [1] (setting [5]) was 10 to 50% in each case.

Regarding `O=C1CN(c2c(O)cc(NC(=O)Nc3cccc(Cl)c3)cc2F)S(=O)(=O)N1` [Example 46, 1-(3-chlorophenyl)-3-[4-(1,1-dioxido-4-oxo-1,2,5-thiadiazolidin-2-yl)-3-fluoro-5-hydroxyphenyl]urea], the IC50 on GST-tagged PTPN2 protein was less than 0.005 µM; in assay [1] (setting [2]) it was not below 100 µM; in assay [1] (setting [3]), not below 100 µM. Moreover, the inhibition at 100 µM in assay [1] (setting [4]) and in assay [1] (setting [5]) was 10 to 50% in each case.

Take `O=C1CN(c2c(O)cc(NS(=O)(=O)c3ccccc3)cc2F)S(=O)(=O)N1` [Example 17, N-[4-(1,1-dioxido-4-oxo-1,2,5-thiadiazolidin-2-yl)-3-fluoro-5-hydroxyphenyl]benzenesulfonamide]: the values for the IC50 (against GST-tagged PTPN2 protein; in assay [1] (setting [2]); in assay [1] (setting [3])) were 0.01 to 0.05 µM, 10 to 50 µM and 10 to 50 µM, respectively. Besides, the inhibition at 40 µM in assay [1] (B16-F10, B16F10, 40 μM compound, no IFNγ, read-out: % Growth Inhibition no IFNγ @ 40 μM) lay within 10 to 50%.

In the case of `O=C1CN(c2c(O)cc(NC(=O)NC3CCCNC3)cc2F)S(=O)(=O)N1` (centres unmarked) [Example 104, 1-[3-fluoro-5-hydroxy-4-(1,1,4-trioxo-1,2,5-thiadiazolidin-2-yl)phenyl]-3-(3-piperidyl)urea], the figures for the IC50 (against GST-tagged PTPN2 protein; in assay [1] (setting [2]); in assay [1] (setting [3])) were less than 0.005 µM, 5 to 10 µM and not below 100 µM, respectively. For the same compound, the inhibition at 100 µM in assay [1] (setting [4]) lay within 75 to 100%; in assay [1] (setting [5]) it was 10 to 50%.

`COCCCNC(=O)Nc1cc(O)c(N2CC(=O)NS2(=O)=O)c(F)c1` [Example 58, 1-[4-(1,1-dioxido-4-oxo-1,2,5-thiadiazolidin-2-yl)-3-fluoro-5-hydroxyphenyl]-3-(3-methoxypropyl)urea]: the IC50 on GST-tagged PTPN2 protein was 0.01 to 0.05 µM; in assay [1] (setting [2]), 5 to 10 µM; in assay [1] (setting [3]), not below 100 µM. Besides, the inhibition at 100 µM in assay [1] (setting [4]) was 75 to 100%; in assay [1] (setting [5]), 10 to 50%.

As to `O=C1CN(c2c(O)cc(NC(=O)c3ccccc3)cc2F)S(=O)(=O)N1` [Example 13, N-[4-(1,1-dioxido-4-oxo-1,2,5-thiadiazolidin-2-yl)-3-fluoro-5-hydroxyphenyl]benzamide], the IC50 against GST-tagged PTPN2 protein was 0.1 to 0.5 µM; in assay [1] (setting [2]), not below 100 µM; in assay [1] (setting [3]) it was not below 100 µM. In addition, the inhibition at 100 µM in assay [1] (setting [4]) and in assay [1] (setting [5]) was 10 to 50% in each case.

Turning to `O=C1CN(c2c(O)cc(NS(=O)(=O)c3ccccc3F)cc2F)S(=O)(=O)N1` [Example 21, N-[4-(1,1-dioxido-4-oxo-1,2,5-thiadiazolidin-2-yl)-3-fluoro-5-hydroxyphenyl]-2-fluorobenzenesulfonamide], the IC50 was 0.1 to 0.5 µM on GST-tagged PTPN2 protein, 10 to 50 µM in assay [1] (setting [2]) and not below 100 µM in assay [1] (setting [3]). Also, the results for the inhibition at 100 µM in assay [1] (setting [4]) and in assay [1] (setting [5]) were 50 to 75% and 10 to 50%, respectively.

Take `O=C1CN(c2c(O)cc(NC(=O)NCC3CCCO3)cc2F)S(=O)(=O)N1` (centres unmarked) [Example 57, 1-[4-(1,1-dioxido-4-oxo-1,2,5-thiadiazolidin-2-yl)-3-fluoro-5-hydroxyphenyl]-3-(tetrahydrofuran-2-ylmethyl)urea]: the IC50 was 0.01 to 0.05 µM on GST-tagged PTPN2 protein, 10 to 50 µM in assay [1] (setting [2]) and not below 100 µM in assay [1] (setting [3]). Moreover, the inhibition at 100 µM in assay [1] (setting [4]) lay in the range of 50 to 75%; in assay [1] (setting [5]) it was 10 to 50%.

Turning to `COc1ccc(S(=O)(=O)Nc2cc(O)c(N3CC(=O)NS3(=O)=O)c(F)c2)cc1` [Example 25, N-[4-(1,1-dioxido-4-oxo-1,2,5-thiadiazolidin-2-yl)-3-fluoro-5-hydroxyphenyl]-4-methoxybenzenesulfonamide], the results for the IC50 (at GST-tagged PTPN2 protein; in assay [1] (setting [2]); in assay [1] (setting [3])) were 0.01 to 0.05 µM, 10 to 50 µM and not below 100 µM, respectively. The inhibition at 100 µM lay within 50 to 75% in assay [1] (setting [4]) and 10 to 50% in assay [1] (setting [5]).

Consider `O=C1CN(c2c(O)cc(NC(=O)N[C@H](CO)Cc3ccccc3)cc2F)S(=O)(=O)N1` [Example 109, 1-[(1S)-1-benzyl-2-hydroxy-ethyl]-3-[3-fluoro-5-hydroxy-4-(1,1,4-trioxo-1,2,5-thiadiazolidin-2-yl)phenyl]urea], for which the IC50 against GST-tagged PTPN2 protein was less than 0.005 µM; in assay [1] (setting [2]), 10 to 50 µM; in assay [1] (setting [3]), not below 100 µM. The inhibition at 100 µM in assay [1] (setting [4]) fell in the range of 50 to 75%; in assay [1] (setting [5]), 10 to 50%.

As for `O=C1CN(c2c(O)cc(NC(=O)Nc3cccc(F)c3)cc2F)S(=O)(=O)N1` [Example 54, 1-[4-(1,1-dioxido-4-oxo-1,2,5-thiadiazolidin-2-yl)-3-fluoro-5-hydroxyphenyl]-3-(3-fluorophenyl)urea], the results for the IC50 (against GST-tagged PTPN2 protein; in assay [1] (setting [2]); in assay [1] (setting [3])) were less than 0.005 µM, 10 to 50 µM and not below 100 µM, respectively. In addition, the figures for the inhibition at 100 µM in assay [1] (setting [4]) and in assay [1] (setting [5]) were 50 to 75% and 10 to 50%, respectively.

With `COc1ccc(NC(=O)Nc2cc(O)c(N3CC(=O)NS3(=O)=O)c(F)c2)cc1OC` [Example 59, 1-(3,4-dimethoxyphenyl)-3-[4-(1,1-dioxido-4-oxo-1,2,5-thiadiazolidin-2-yl)-3-fluoro-5-hydroxyphenyl]urea], the figures for the IC50 (at GST-tagged PTPN2 protein; in assay [1] (setting [2]); in assay [1] (setting [3])) were less than 0.005 µM, 10 to 50 µM and not below 100 µM, respectively. Besides, the inhibition at 100 µM in assay [1] (setting [4]) was 50 to 75%; in assay [1] (setting [5]), 10 to 50%.

For `CC(C)CNC(=O)C12CC(NC(=O)Nc3cc(O)c(N4CC(=O)NS4(=O)=O)c(F)c3)(C1)C2` [Example 112, 3-[[3-fluoro-5-hydroxy-4-(1,1,4-trioxo-1,2,5-thiadiazolidin-2-yl)phenyl]carbamoylamino]-N-isobutyl-bicyclo[1.1.1]pentane-1-carboxamide], the values for the IC50 (on GST-tagged PTPN2 protein; in assay [1] (setting [2]); in assay [1] (setting [3])) were less than 0.005 µM, 50 to 100 µM and not below 100 µM, respectively. For the same compound, the inhibition at 100 µM in assay [1] (setting [4]) and in assay [1] (setting [5]) was 10 to 50% throughout.
